Measured values reported in patent publication EP4707280A1, “1,4-CINEOLE DERIVATIVE AND INTERMEDIATE THEREOF, HERBICIDE CONTAINING SAID DERIVATIVE AS ACTIVE INGREDIENT, METHOD FOR USING HERBICIDE, AND METHOD FOR PREPARING AGROCHEMICAL COMPOSITION” (HOKKO CHEMICAL INDUSTRY CO., LTD., priority 2023, dated 2024).

Experiments:
Format in all cases: in vivo
[1] = tested on: Echinochloa crus-galli var. formosensis; assay: Test Example 1: herbicidal effect test by soil application in paddy rice; conditions: Echinochloa crus-galli, soil, 336 h; 120 g active ingredient per 10 ares; applied immediately after sowing, flooded pots; 14 days after application; read-out: weed inhibition rate
Procedure, shortened: (§1)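 Paddy soil in Wagner pots (1/10,000 acre), fertilized and puddled; 30 seeds per species sown at 0–1 cm, flooded to ~3 cm, greenhouse. Water-diluted emulsifiable concentrate dropped onto flooded pots right after sowing at 120 g active ingredient per 10 ares.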

Scirpus juncoides [2] = assay: as above; conditions: Schoenoplectiella juncoides, soil, 336 h; 120 g active ingredient per 10 ares; applied immediately after sowing, flooded pots; 14 days after application; read-out: weed inhibition rate
Procedure, shortened: as §1

[3] = tested on: Echinochloa crus-galli var. formosensis; assay: Test Example 2: herbicidal effect test by application during growth period of paddy rice; conditions: Echinochloa crus-galli; 120 g per 10 ares; applied seven days after sowing, flooded pots; 14 days after application; read-out: weed inhibition rate
Procedure, shortened: (§2)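 Steps: puddle fertilized paddy soil; sow 30 seeds of each weed at 0–1 cm; flood to roughly 3 cm and keep in a glasshouse; at day 7 drop in diluted emulsifiable concentrate (120 g a.i. per 10 ares); score inhibition (%) 14 days later, two replicates.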

Scirpus juncoides [4] = assay: as above; conditions: Schoenoplectiella juncoides; 120 g per 10 ares; applied seven days after sowing, flooded pots; 14 days after application; read-out: weed inhibition rate
Procedure, shortened: as §2

Digitaria ciliaris [5] = assay: Test Example 3: herbicidal effect test by soil application in upland field; conditions: Digitaria ciliaris, 120 g per 10 ares, sprayed one day after sowing, 14 days after application, read-out: weed inhibition rate
Procedure, shortened: (§3)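 Pre-emergence test: seeds mixed into top 1 cm of alluvial loam upland soil in pots; emulsifiable concentrate diluted in water sprayed on soil one day after sowing at 100 L/10 a, 120 g a.i./10 a. Weed inhibition rate (%) scored at 14 days, in duplicate.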

Echinochloa crus-galli [6] = assay: as above; conditions: Echinochloa crus-galli, 120 g per 10 ares, sprayed one day after sowing, 14 days after application, read-out: weed inhibition rate
Procedure, shortened: as §3

Digitaria ciliaris [7] = assay: Test Example 4: herbicidal effect test by stem and leaf treatment in upland field; conditions: Digitaria ciliaris; 120 g per 10 ares; sprayed seven days after sowing, upland soil; 14 days after application; read-out: weed inhibition rate
Echinochloa crus-galli [8] = assay: as above; conditions: Echinochloa crus-galli; 120 g per 10 ares; sprayed seven days after sowing, upland soil; 14 days after application; read-out: weed inhibition rate
[9] = tested on: Echinochloa crus-galli var. formosensis; assay: Test Example 5: herbicidal effect test by soil application in paddy rice (low dose); conditions: Echinochloa crus-galli, soil, 336 h; 7.5 g per 10 ares; applied immediately after sowing, flooded pots; 14 days after application; read-out: weed inhibition rate
Procedure, shortened: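 Flooded-paddy soil application at low dose (7.5 g a.i. per 10 ares), given by dropper as diluted emulsifiable concentrate directly after sowing weeds 0–1 cm deep. Effect evaluated after 14 days in duplicate.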

[10] = tested on: Echinochloa crus-galli var. formosensis; assay: Test Example 6: herbicidal effect test by application during growth period of paddy rice (low dose); conditions: Echinochloa crus-galli; 7.5 g per 10 ares; applied seven days after sowing, flooded pots; 14 days after application; read-out: weed inhibition rate
Procedure, shortened: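 Paddy-soil pots, flooded ~3 cm after sowing weed seeds at 0-1 cm depth, greenhouse-grown. Seven days after sowing, diluted emulsifiable concentrate applied by dropper at 7.5 g active ingredient per 10 ares. Weed inhibition rate (%) scored 14 days after application, in duplicate.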

Digitaria ciliaris [11] = assay: Test Example 7: herbicidal effect test by soil application in upland field (low dose); conditions: Digitaria ciliaris, 7.5 g per 10 ares, sprayed one day after sowing, 14 days after application, read-out: weed inhibition rate
Procedure, shortened: (§4)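 Upland soil (alluvial loam) pots, seeds mixed into top 1 cm layer → EC formulation diluted with water, sprayed onto soil 1 d post-sowing, 100 L/10 a → 7.5 g a.i./10 a → inhibition (%) scored at 14 d, n=2.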

Echinochloa crus-galli [12] = assay: as above; conditions: Echinochloa crus-galli, 7.5 g per 10 ares, sprayed one day after sowing, 14 days after application, read-out: weed inhibition rate
Procedure, shortened: as §4

Digitaria ciliaris [13] = assay: Test Example 8: herbicidal effect test by stem and leaf treatment in upland field (low dose); conditions: Digitaria ciliaris; 7.5 g per 10 ares; sprayed seven days after sowing, upland soil; 14 days after application; read-out: weed inhibition rate
Echinochloa crus-galli [14] = assay: as above; conditions: Echinochloa crus-galli; 7.5 g per 10 ares; sprayed seven days after sowing, upland soil; 14 days after application; read-out: weed inhibition rate

CC(C)[C@]12C[C@@H](OCc3ccccc3Cl)[C@](C)(C[C@@H]1Cl)O2 [1-13, (1R,2S,4S,5R)-2-chloro-5-[(2-chlorophenyl)methoxy]-1-isopropyl-4-methyl-7-oxabicyclo[2.2.1]heptane]
≥ 80%: pest or weed control at 1200 g/ha [1] | pest or weed control at 1200 g/ha (Scirpus juncoides [2]) | inhibition at 1200 g/ha [3] | inhibition at 1200 g/ha (Scirpus juncoides [4]) | inhibition at 1200 g/ha (Digitaria ciliaris [5]) | inhibition at 1200 g/ha (Echinochloa crus-galli [6]) | inhibition at 1200 g/ha (Digitaria ciliaris [7]) | inhibition at 1200 g/ha (Echinochloa crus-galli [8]) | inhibition at 75 g/ha [9] | inhibition at 75 g/ha [10] | inhibition at 75 g/ha (Digitaria ciliaris [11]) | inhibition at 75 g/ha (Echinochloa crus-galli [12]) | inhibition at 75 g/ha (Digitaria ciliaris [13]) | inhibition at 75 g/ha (Echinochloa crus-galli [14])

CC(C)[C@]12C[C@@H](OCc3c(F)cccc3F)[C@](C)(C[C@@H]1Cl)O2 [1-14, (1R,2S,4S,5R)-2-chloro-5-[(2,6-difluorophenyl)methoxy]-1-isopropyl-4-methyl-7-oxabicyclo[2.2.1]heptane]
≥ 80%: pest or weed control at 1200 g/ha [1] | pest or weed control at 1200 g/ha (Scirpus juncoides [2]) | inhibition at 1200 g/ha [3] | inhibition at 1200 g/ha (Scirpus juncoides [4]) | inhibition at 1200 g/ha (Digitaria ciliaris [5]) | inhibition at 1200 g/ha (Echinochloa crus-galli [6]) | inhibition at 1200 g/ha (Digitaria ciliaris [7]) | inhibition at 1200 g/ha (Echinochloa crus-galli [8]) | inhibition at 75 g/ha [9] | inhibition at 75 g/ha [10] | inhibition at 75 g/ha (Digitaria ciliaris [11]) | inhibition at 75 g/ha (Echinochloa crus-galli [12]) | inhibition at 75 g/ha (Digitaria ciliaris [13]) | inhibition at 75 g/ha (Echinochloa crus-galli [14])

CO[C@H]1C[C@]2(C)O[C@@]1(C(C)C)C[C@H]2OCc1ccccc1 [1-150, (1R,2S,4S,5R)-5-benzyloxy-1-isopropyl-2-methoxy-4-methyl-7-oxabicyclo[2.2.1]heptane]
≥ 80%: pest or weed control at 1200 g/ha [1] | pest or weed control at 1200 g/ha (Scirpus juncoides [2]) | inhibition at 1200 g/ha [3] | inhibition at 1200 g/ha (Scirpus juncoides [4]) | inhibition at 1200 g/ha (Digitaria ciliaris [5]) | inhibition at 1200 g/ha (Echinochloa crus-galli [6]) | inhibition at 1200 g/ha (Digitaria ciliaris [7]) | inhibition at 1200 g/ha (Echinochloa crus-galli [8]) | inhibition at 75 g/ha [9] | inhibition at 75 g/ha [10] | inhibition at 75 g/ha (Digitaria ciliaris [11]) | inhibition at 75 g/ha (Echinochloa crus-galli [12]) | inhibition at 75 g/ha (Digitaria ciliaris [13]) | inhibition at 75 g/ha (Echinochloa crus-galli [14])

CC(C)=CCO[C@@H]1C[C@]2(C(C)C)O[C@@]1(C)C[C@@H]2Cl [1-612, (1R,2S,4S,5R)-2-chloro-1-isopropyl-4-methyl-5-(3-methylbut-2-enoxy)-7-oxabicyclo[2.2.1]heptane]
≥ 80%: pest or weed control at 1200 g/ha [1] | pest or weed control at 1200 g/ha (Scirpus juncoides [2]) | inhibition at 1200 g/ha [3] | inhibition at 1200 g/ha (Scirpus juncoides [4]) | inhibition at 1200 g/ha (Digitaria ciliaris [5]) | inhibition at 1200 g/ha (Echinochloa crus-galli [6]) | inhibition at 1200 g/ha (Digitaria ciliaris [7]) | inhibition at 1200 g/ha (Echinochloa crus-galli [8]) | inhibition at 75 g/ha [9] | inhibition at 75 g/ha [10] | inhibition at 75 g/ha (Digitaria ciliaris [11]) | inhibition at 75 g/ha (Echinochloa crus-galli [12]) | inhibition at 75 g/ha (Digitaria ciliaris [13]) | inhibition at 75 g/ha (Echinochloa crus-galli [14])

CC#CCO[C@@H]1C[C@]2(C(C)C)O[C@@]1(C)C[C@@H]2Cl [1-614, (1R,2S,4S,5R)-5-but-2-ynoxy-2-chloro-1-isopropyl-4-methyl-7-oxabicyclo[2.2.1]heptane]
≥ 80%: pest or weed control at 1200 g/ha [1] | pest or weed control at 1200 g/ha (Scirpus juncoides [2]) | inhibition at 1200 g/ha [3] | inhibition at 1200 g/ha (Scirpus juncoides [4]) | inhibition at 1200 g/ha (Digitaria ciliaris [5]) | inhibition at 1200 g/ha (Echinochloa crus-galli [6]) | inhibition at 1200 g/ha (Digitaria ciliaris [7]) | inhibition at 1200 g/ha (Echinochloa crus-galli [8]) | inhibition at 75 g/ha [9] | inhibition at 75 g/ha [10] | inhibition at 75 g/ha (Digitaria ciliaris [11]) | inhibition at 75 g/ha (Echinochloa crus-galli [12]) | inhibition at 75 g/ha (Digitaria ciliaris [13]) | inhibition at 75 g/ha (Echinochloa crus-galli [14])

CC(C)[C@]12C[C@@H](OCc3c(Cl)cccc3Cl)[C@](C)(C[C@@H]1Cl)O2 [1-652, (1R,2S,4S,5R)-2-chloro-5-[(2,6-dichlorophenyl)methoxy]-1-isopropyl-4-methyl-7-oxabicyclo[2.2.1]heptane]
≥ 80%: pest or weed control at 1200 g/ha [1] | pest or weed control at 1200 g/ha (Scirpus juncoides [2]) | inhibition at 1200 g/ha [3] | inhibition at 1200 g/ha (Scirpus juncoides [4]) | inhibition at 1200 g/ha (Digitaria ciliaris [5]) | inhibition at 1200 g/ha (Echinochloa crus-galli [6]) | inhibition at 1200 g/ha (Digitaria ciliaris [7]) | inhibition at 1200 g/ha (Echinochloa crus-galli [8]) | inhibition at 75 g/ha [9] | inhibition at 75 g/ha [10] | inhibition at 75 g/ha (Digitaria ciliaris [11]) | inhibition at 75 g/ha (Echinochloa crus-galli [12]) | inhibition at 75 g/ha (Digitaria ciliaris [13]) | inhibition at 75 g/ha (Echinochloa crus-galli [14])

CC(C)[C@]12C[C@@H](OCc3c(F)cccc3Cl)[C@](C)(C[C@@H]1Cl)O2 [1-653, (1R,2S,4S,5R)-2-chloro-5-[(2-chloro-6-fluoro-phenyl)methoxy]-1-isopropyl-4-methyl-7-oxabicyclo[2.2.1]heptane]
≥ 80%: pest or weed control at 1200 g/ha [1] | pest or weed control at 1200 g/ha (Scirpus juncoides [2]) | inhibition at 1200 g/ha [3] | inhibition at 1200 g/ha (Scirpus juncoides [4]) | inhibition at 1200 g/ha (Digitaria ciliaris [5]) | inhibition at 1200 g/ha (Echinochloa crus-galli [6]) | inhibition at 1200 g/ha (Digitaria ciliaris [7]) | inhibition at 1200 g/ha (Echinochloa crus-galli [8]) | inhibition at 75 g/ha [9] | inhibition at 75 g/ha [10] | inhibition at 75 g/ha (Digitaria ciliaris [11]) | inhibition at 75 g/ha (Echinochloa crus-galli [12]) | inhibition at 75 g/ha (Digitaria ciliaris [13]) | inhibition at 75 g/ha (Echinochloa crus-galli [14])

CC(C)[C@]12C[C@@H](OCc3ccccn3)[C@](C)(C[C@@H]1Cl)O2 [1-658, 2-[[(1S,2R,4R,5S)-5-chloro-4-isopropyl-1-methyl-7-oxabicyclo[2.2.1]heptan-2-yl]oxymethyl]pyridine]
≥ 80%: pest or weed control at 1200 g/ha [1] | pest or weed control at 1200 g/ha (Scirpus juncoides [2]) | inhibition at 1200 g/ha [3] | inhibition at 1200 g/ha (Scirpus juncoides [4]) | inhibition at 1200 g/ha (Digitaria ciliaris [5]) | inhibition at 1200 g/ha (Echinochloa crus-galli [6]) | inhibition at 1200 g/ha (Digitaria ciliaris [7]) | inhibition at 1200 g/ha (Echinochloa crus-galli [8]) | inhibition at 75 g/ha [9] | inhibition at 75 g/ha [10] | inhibition at 75 g/ha (Digitaria ciliaris [11]) | inhibition at 75 g/ha (Echinochloa crus-galli [12]) | inhibition at 75 g/ha (Digitaria ciliaris [13]) | inhibition at 75 g/ha (Echinochloa crus-galli [14])
